PubChem BioAssay (NCI)
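Method: 48-hour compound exposure of cells in 96-well plates, five concentrations, linear interpolation of endpoints. Abbreviation: GI50, concentration required for 50% inhibition of growth. The concentration for full growth arrest is given as TGI.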

Test system: MDA-MB-468 breast
Test: inhibition of tumour cell growth, NCI panel, 48 h

Work on `C#CCOc1cccc(Nc2ncnc3c(NC(=O)C=C)cccc23)c1` yielded a GI50 of 4910 nM and a TGI of 25.4 µM.
Work on `Cc1cc(N/N=C/c2ccccn2)nc2ccccc12` yielded a GI50 of 252 nM and a TGI of 2.6 µM.
Work on `CCN(CC)CCCCCCNc1cccc2cc(Br)cnc12` yielded a GI50 of 1960 nM and a TGI of 4.46 µM.
Work on `CC(C)c1[nH]nc2c1N=C(c1ccccc1Cl)c1cc([N+](=O)[O-])ccc1N2` yielded a GI50 of 2930 nM and a TGI of 15.7 µM.
With `N#CCCN1C/C(=C/c2ccc(Br)cc2)C(=O)/C(=C/c2ccc(Br)cc2)C1` the GI50 was 1500 nM and the TGI was 3.62 µM.
For `Cn1cc(-c2csc(-c3cn(CCCCN4CCCCC4)c4ccccc34)n2)c2cccnc21`, the GI50 was 1610 nM and the TGI was 3.29 µM.
